Reference: PubChem BioAssay AID256 (DTP/NCI, 2004)
“And” between values parts separate entries of the source, which are not always exact repeats. Equal entries are not always repeated. Inconclusive results and toxic doses are left out. Rule for the calls: active = survival T/C of 150% or more; inactive = T/C below 125% in these data.

Test system: CD2F1 mice, L1210 leukemia ip, survival T/C
Assay: NCI In Vivo Anticancer Drug Screen. Data for tumor model L1210 Leukemia (intraperitoneal) in CD2F1 (CDF1) mice
Conditions: higher = longer survival
Summary of the method: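 Implant tumor; dose compound or vehicle; measure endpoint in both groups; report treated divided by control.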

[1] = endpoint: mean survival time, dose: 100.0 mg/kg/injection, schedule: Q04DX003 (ip), vehicle: saline with Tween-80
[2] = endpoint: mean survival time, dose: 200.0 mg/kg/injection, schedule: Q04DX003 (ip), vehicle: saline with Tween-80
[3] = endpoint: mean survival time, dose: 100.0 mg/kg/injection, schedule: Q04DX002 (ip), vehicle: saline with Tween-80
[4] = endpoint: mean survival time, dose: 200.0 mg/kg/injection, schedule: Q04DX002 (ip), vehicle: saline with Tween-80
[5] = endpoint: mean survival time, dose: 400.0 mg/kg/injection, schedule: Q04DX002 (ip), vehicle: saline with Tween-80

Measured: T/C

CCCCOC1CCC2(C)C(=CCC3C2CCC2(C)C(C(C)CCCC(C)C)CCC32)C1 (stereo unspecified)
inactive: endpoint: mean survival time, dose: 100.0 mg/kg/injection, schedule: Q01DX009 (sc), vehicle: steriod suspending solution 114 % of control | endpoint: mean survival time, dose: 100.0 mg/kg/injection, schedule: Q04DX003 (sc), vehicle: steriod suspending solution 91 % of control | endpoint: mean survival time, dose: 200.0 mg/kg/injection, schedule: Q01DX009 (sc), vehicle: steriod suspending solution 102 % of control | endpoint: mean survival time, dose: 200.0 mg/kg/injection, schedule: Q04DX003 (sc), vehicle: steriod suspending solution 96 % of control | endpoint: mean survival time, dose: 400.0 mg/kg/injection, schedule: Q01DX009 (sc), vehicle: steriod suspending solution 103 % of control | endpoint: mean survival time, dose: 400.0 mg/kg/injection, schedule: Q04DX003 (sc), vehicle: steriod suspending solution 102 % of control

COc1cc(/C=N\NC(C)=O)cc(OC)c1OC
inactive: [1] 101 % of control | [2] 95 % of control

Cc1ccc2cccc(CC(=O)O)c2c1
inactive: [3] 102 % of control | [4] 98 % of control | [5] 91 % of control

CC1Oc2cc3c(-c4c(O)cc(O)c5c(O)c6c(cc45)OC(C)C(C)C6=O)c(O)cc(O)c3c(O)c2C(=O)C1C (stereo unspecified)
inactive: endpoint: median survival time, dose: 5.0 mg/kg/injection, schedule: Q01DX009 (ip), vehicle: suspension in saline 87 % of control | endpoint: median survival time, dose: 10.0 mg/kg/injection, schedule: Q01DX009 (ip), vehicle: suspension in saline 91 % of control

COC(=O)CC1(O)C=CC(=O)C=C1
inactive: endpoint: mean survival time, dose: 0.75 mg/kg/injection, schedule: Q01DX009 (ip), vehicle: Klucel (hydroxypropylcellulose) (HPC) 104 % of control | endpoint: mean survival time, dose: 1.5 mg/kg/injection, schedule: Q01DX009 (ip), vehicle: Klucel (hydroxypropylcellulose) (HPC) 98 % of control | endpoint: mean survival time, dose: 3.0 mg/kg/injection, schedule: Q01DX009 (ip), vehicle: Klucel (hydroxypropylcellulose) (HPC) 95 % of control | endpoint: mean survival time, dose: 6.0 mg/kg/injection, schedule: Q01DX009 (ip), vehicle: Klucel (hydroxypropylcellulose) (HPC) 92 % of control | endpoint: mean survival time, dose: 12.0 mg/kg/injection, schedule: Q01DX009 (ip), vehicle: Klucel (hydroxypropylcellulose) (HPC) 95 % of control

CN(C)N=Nc1ccc(SC#N)cc1C(N)=O
inactive: endpoint: mean survival time, dose: 18.8 mg/kg/injection, schedule: Q01DX009 (ip), vehicle: Klucel (hydroxypropylcellulose) (HPC) 93 % of control and 103 % of control | endpoint: mean survival time, dose: 37.5 mg/kg/injection, schedule: Q01DX009 (ip), vehicle: Klucel (hydroxypropylcellulose) (HPC) 97 % of control and 106 % of control | endpoint: mean survival time, dose: 75.0 mg/kg/injection, schedule: Q01DX009 (ip), vehicle: Klucel (hydroxypropylcellulose) (HPC) 107 % of control and 108 % of control | endpoint: mean survival time, dose: 150.0 mg/kg/injection, schedule: Q01DX009 (ip), vehicle: Klucel (hydroxypropylcellulose) (HPC) 88 % of control and 110 % of control

CCOC(=O)c1cc2c(=O)cccnc2o1
inactive: endpoint: mean survival time, dose: 75.0 mg/kg/injection, schedule: Q01DX001 (ip), vehicle: saline 93 % of control | endpoint: mean survival time, dose: 150.0 mg/kg/injection, schedule: Q01DX001 (ip), vehicle: saline 96 % of control | endpoint: mean survival time, dose: 300.0 mg/kg/injection, schedule: Q01DX001 (ip), vehicle: saline 96 % of control

CC1(CCC2(C)OCCO2)OCCO1
inactive: [3] 93 % of control | [4] 101 % of control | [5] 93 % of control

S=C(NCc1ccccc1)NCc1ccccc1
inactive: [1] 108 % of control | [2] 100 % of control | endpoint: mean survival time, dose: 400.0 mg/kg/injection, schedule: Q04DX003 (ip), vehicle: saline with Tween-80 102 % of control
